Assay results taken from patent publication US7244431B2, “Allergy vaccines and their preparation” (priority 2000, dated 2007).

Assays:
[1] = test system: birch pollen allergic patients; test: Skin prick testing of allergic patients; format: in vivo, human; settings: 100 μg/ml
Experimental: SPTs were performed on the individuals forearms as described ([…]. et al. (1997) J. Clin Invest. 99, 1673-168; Dreborg S: (1989) J. Am. Acad. DerMatol. 21, 820-821). […] In addition standardized skin prick solutions (birch pollen extract and histamine) (Allergopharma, Reinbek, Germany) were tested. Reactions were recorded 20 minutes after SPT by photography and by transferring the ballpoint pen-surrounded wheal area with a scotch tape to paper.

[2] = test system: IgE antibodies in sera from birch pollen allergic patients; test: ELISA detection of peptide- and rBet v 1-specific IgE antibodies; format: binding, human
How it was run: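 IgE binding detected by 1:1000 alkaline-phosphatase mouse monoclonal anti-human IgE after overnight 4 °C incubation with 1:3-diluted sera. Sera came from 60 birch pollen allergic patients (25 male, 35 female, age 19–60) and a non-atopic control.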

Sequence: DGGSILKISNKYHTKGDHEVKAEQVKASKEC [Peptide P4, Bet v 1-derived synthetic peptide, position aa 110-139, one cysteine added]
- mean wheal diameter ([1]; individual 1): 0 mm
- mean wheal diameter ([1]; individual 2): 0 mm
- mean wheal diameter ([1]; individual 3): 0 mm
- mean wheal diameter ([1]; individual 4): 0 mm
- mean wheal diameter ([1]; individual 5): 0 mm
- mean wheal diameter ([1]; individual 6 (allergic, without birch pollen allergy)): 0 mm
- IgE (OD) ([2]; serum of NHS, non-allergic control individual): — (Dashes indicate reactivities below the cut-off level (OD=0.050))
- IgE (OD) ([2]; serum of patient 1): — (Dashes indicate reactivities below the cut-off level (OD=0.050))
- IgE (OD) ([2]; serum of patient 2): — (Dashes indicate reactivities below the cut-off level (OD=0.050))
- IgE (OD) ([2]; serum of patient 3): — (Dashes indicate reactivities below the cut-off level (OD=0.050))
- IgE (OD) ([2]; serum of patient 4): — (Dashes indicate reactivities below the cut-off level (OD=0.050))
- IgE (OD) ([2]; serum of patient 5): — (Dashes indicate reactivities below the cut-off level (OD=0.050))
- IgE (OD) ([2]; serum of patient 6): — (Dashes indicate reactivities below the cut-off level (OD=0.050))
- IgE (OD) ([2]; serum of patient 7): — (Dashes indicate reactivities below the cut-off level (OD=0.050))
- IgE (OD) ([2]; serum of patient 8): — (Dashes indicate reactivities below the cut-off level (OD=0.050))
- IgE (OD) ([2]; serum of patient 9): — (Dashes indicate reactivities below the cut-off level (OD=0.050))
- IgE (OD) ([2]; serum of patient 10): — (Dashes indicate reactivities below the cut-off level (OD=0.050))
- IgE (OD) ([2]; serum of patient 11): — (Dashes indicate reactivities below the cut-off level (OD=0.050))
- IgE (OD) ([2]; serum of patient 12): — (Dashes indicate reactivities below the cut-off level (OD=0.050))
- IgE (OD) ([2]; serum of patient 13): — (Dashes indicate reactivities below the cut-off level (OD=0.050))
- IgE (OD) ([2]; serum of patient 14): — (Dashes indicate reactivities below the cut-off level (OD=0.050))
- IgE (OD) ([2]; serum of patient 15): — (Dashes indicate reactivities below the cut-off level (OD=0.050))
- IgE (OD) ([2]; serum of patient 16): — (Dashes indicate reactivities below the cut-off level (OD=0.050))
- IgE (OD) ([2]; serum of patient 17): — (Dashes indicate reactivities below the cut-off level (OD=0.050))
- IgE (OD) ([2]; serum of patient 18): — (Dashes indicate reactivities below the cut-off level (OD=0.050))
- IgE (OD) ([2]; serum of patient 19): — (Dashes indicate reactivities below the cut-off level (OD=0.050))
- IgE (OD) ([2]; serum of patient 20): — (Dashes indicate reactivities below the cut-off level (OD=0.050))
- IgE (OD) ([2]; serum of patient 21): — (Dashes indicate reactivities below the cut-off level (OD=0.050))
- IgE (OD) ([2]; serum of patient 22): — (Dashes indicate reactivities below the cut-off level (OD=0.050))
- IgE (OD) ([2]; serum of patient 23): — (Dashes indicate reactivities below the cut-off level (OD=0.050))
- IgE (OD) ([2]; serum of patient 24): — (Dashes indicate reactivities below the cut-off level (OD=0.050))
- IgE (OD) ([2]; serum of patient 25): — (Dashes indicate reactivities below the cut-off level (OD=0.050))
- IgE (OD) ([2]; serum of patient 26): — (Dashes indicate reactivities below the cut-off level (OD=0.050))
- IgE (OD) ([2]; serum of patient 27): — (Dashes indicate reactivities below the cut-off level (OD=0.050))
- IgE (OD) ([2]; serum of patient 28): — (Dashes indicate reactivities below the cut-off level (OD=0.050))
- IgE (OD) ([2]; serum of patient 29): — (Dashes indicate reactivities below the cut-off level (OD=0.050))
- IgE (OD) ([2]; serum of patient 30): — (Dashes indicate reactivities below the cut-off level (OD=0.050))
- IgE (OD) ([2]; serum of patient 31): — (Dashes indicate reactivities below the cut-off level (OD=0.050))
- IgE (OD) ([2]; serum of patient 32): — (Dashes indicate reactivities below the cut-off level (OD=0.050))
- IgE (OD) ([2]; serum of patient 33): — (Dashes indicate reactivities below the cut-off level (OD=0.050))
- IgE (OD) ([2]; serum of patient 34): — (Dashes indicate reactivities below the cut-off level (OD=0.050))
- IgE (OD) ([2]; serum of patient 35): — (Dashes indicate reactivities below the cut-off level (OD=0.050))
- IgE (OD) ([2]; serum of patient 36): — (Dashes indicate reactivities below the cut-off level (OD=0.050))
- IgE (OD) ([2]; serum of patient 37): — (Dashes indicate reactivities below the cut-off level (OD=0.050))
- IgE (OD) ([2]; serum of patient 38): — (Dashes indicate reactivities below the cut-off level (OD=0.050))
- IgE (OD) ([2]; serum of patient 39): — (Dashes indicate reactivities below the cut-off level (OD=0.050))
- IgE (OD) ([2]; serum of patient 40): — (Dashes indicate reactivities below the cut-off level (OD=0.050))
- IgE (OD) ([2]; serum of patient 41): — (Dashes indicate reactivities below the cut-off level (OD=0.050))
- IgE (OD) ([2]; serum of patient 42): — (Dashes indicate reactivities below the cut-off level (OD=0.050))
- IgE (OD) ([2]; serum of patient 43): — (Dashes indicate reactivities below the cut-off level (OD=0.050))
- IgE (OD) ([2]; serum of patient 44): — (Dashes indicate reactivities below the cut-off level (OD=0.050))
- IgE (OD) ([2]; serum of patient 45): — (Dashes indicate reactivities below the cut-off level (OD=0.050))
- IgE (OD) ([2]; serum of patient 46): — (Dashes indicate reactivities below the cut-off level (OD=0.050))
- IgE (OD) ([2]; serum of patient 47): — (Dashes indicate reactivities below the cut-off level (OD=0.050))
- IgE (OD) ([2]; serum of patient 48): — (Dashes indicate reactivities below the cut-off level (OD=0.050))
- IgE (OD) ([2]; serum of patient 49): — (Dashes indicate reactivities below the cut-off level (OD=0.050))
- IgE (OD) ([2]; serum of patient 50): — (Dashes indicate reactivities below the cut-off level (OD=0.050))
- IgE (OD) ([2]; serum of patient 51): — (Dashes indicate reactivities below the cut-off level (OD=0.050))
- IgE (OD) ([2]; serum of patient 52): — (Dashes indicate reactivities below the cut-off level (OD=0.050))
- IgE (OD) ([2]; serum of patient 53): — (Dashes indicate reactivities below the cut-off level (OD=0.050))
- IgE (OD) ([2]; serum of patient 54): — (Dashes indicate reactivities below the cut-off level (OD=0.050))
- IgE (OD) ([2]; serum of patient 55): — (Dashes indicate reactivities below the cut-off level (OD=0.050))
- IgE (OD) ([2]; serum of patient 56): — (Dashes indicate reactivities below the cut-off level (OD=0.050))
- IgE (OD) ([2]; serum of patient 57): — (Dashes indicate reactivities below the cut-off level (OD=0.050))
- IgE (OD) ([2]; serum of patient 58): — (Dashes indicate reactivities below the cut-off level (OD=0.050))
- IgE (OD) ([2]; serum of patient 59): — (Dashes indicate reactivities below the cut-off level (OD=0.050))
- IgE (OD) ([2]; serum of patient 60): — (Dashes indicate reactivities below the cut-off level (OD=0.050))
